# Data from patent US12157730B2, “Heteroaryl derivative, method for producing same, and pharmaceutical composition comprising same as effective component” (VORONOI INC., priority 2019, dated 2024).
# Biological target: T1, Ba/F3 cell EGFR Exon20 ins NPH (Homo sapiens, UniProt P00533, INS773NPH)
# T1 construct: expressed in transfected cells; host or cells: Ba/F3
# Assay: Ba/F3 cell proliferation suppression, EGFR Exon20 ins NPH
# Assay type: cell-based
# Conditions: GI50 class; Ba/F3 cell line with NPH inserted at Exon20 of EGFR; 72 hours
# Outline: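 72 h compound exposure, 0.3 nM–50 um (12 points, 3:1 dilution in DMSO); viability by CellTiter-Glo luminescence. Ba/F3 medium: RPMI-1640, 10% FBS, 5 ng/ml IL-3, 1 ug/ml puromycin for transduced cells. GI50 vs control, n=3.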
row,Compound,Ba/F3 (NPH) Activity
1,"C=CC(=O)Nc1cc(Nc2cc(N3OCC[C@@H]3c3ccc(Cl)cc3F)ncn2)c(OC)cc1N1CCC(N2C[C@H]3C[C@@H]2CO3)CC1 [compound 548, N-(2-(4-((1R,4R)-2-oxa-5-azabicyclo[2.2.1]heptane-5-yl)piperidine-1-yl)-5-((6-((R)-3-(4-chloro-2-fluorophenyl)isoxazolidine-2-yl)pyrimidine-4-yl)amino)-4-methoxyphenyl) acrylamide]",A (GI50 < 50 nM)
2,"C#Cc1cccc([C@H]2CCON2c2cc(Nc3cc(NC(=O)C=C)c(N4CCC(N5CCOCC5)CC4)cc3OC)ncn2)c1 [compound 650, N-(5-((6-((R)-3-(3-ethynylphenyl)isoxazolidine-2-yl)pyrimidine-4-yl)amino)-4-methoxy-2-(4-morpholinopiperidine-1-yl)phenyl)acrylamide]",A (GI50 < 50 nM)
3,"C=CC(=O)Nc1cc(Nc2cc(N3OCC[C@@H]3c3ccc(Cl)c(F)c3)ncn2)c(OC)cc1N1CCC(N2CCN(C3CC3)CC2)CC1 [Example 63, N-(5-((6-((R)-3-(4-chloro-3-fluorophenyl)isoxazolidine-2-yl)pyrimidine-4-yl)amino)-2-(4-(4-cyclopropylpiperazine-1-yl)piperidine-1-yl)-4-methoxyphenyl) acrylamide]",A (GI50 < 50 nM)
4,"C=CC(=O)Nc1cc(Nc2cc(N3OCC[C@@H]3c3cccc(F)c3F)ncn2)c(OC)cc1N1CC[C@@H](N(C)C)C1 [compound 927, N-(5-((6-((R)-3-(2,3-difluorophenyl)isoxazolidine-2-yl)pyrimidine-4-yl)amino)-2-((R)-3-(dimethylamino)pyrolidine-1-yl)-4-methoxyphenyl) acrylamide]",A (GI50 < 50 nM)
5,"C=CC(=O)Nc1cc(Nc2cc(N3OCC[C@@H]3c3ccc(F)c(Cl)c3)ncn2)c(OC)cc1N1CCC(N2CCC(N(C)C)CC2)CC1 [compound 768, N-(5-((6-((R)-3-(3-chloro-4-fluorophenyl)isoxazolidine-2-yl)pyrimidine-4-yl)amino)-2-(4-(dimethylamino)-[1,4'-bipiperidine]-1'-yl)-4-methoxyphenyl) acrylamide]",A (GI50 < 50 nM)
6,"C=CC(=O)Nc1cc(Nc2cc(N3OCC[C@@H]3c3cccc(F)c3Cl)ncn2)c(OC)cc1N1CCC(N2CCN(C3COC3)CC2)CC1 [Example 201, N-(5-((6-((R)-3-(2-chloro-3-fluorophenyl)isoxazolidine-2-yl)pyrimidine-4-yl)amino)-4-methoxy-2-(4-(4-(oxetane-3-yl)piperazine-1-yl)piperidine-1-yl)phenyl)acrylamide]",A (GI50 < 50 nM)
7,"C=CC(=O)Nc1cc(Nc2cc(N3OCC[C@@H]3c3ccc(Cl)cc3)ncn2)c(OC)cc1N1CCC(N2CCN(C(C)=O)CC2)CC1 [compound 806, N-(2-(4-(4-acetylpiperazine-1-yl)piperidine-1-yl)-5-((6-((R)-3-(4-chlorophenyl)isoxazolidine-2-yl)pyrimidine-4-yl)amino)-4-methoxyphenyl) acrylamide]",A (GI50 < 50 nM)
8,"C=CC(=O)Nc1cc(Nc2cc(N3OCC[C@@H]3c3ccc(F)cc3F)ncn2)c(OC)cc1N1CCC(N2CCC(N3CCN(C)CC3)CC2)CC1 [compound 477, N-(5-((6-((R)-3-(2,4-difluorophenyl)isoxazolidine-2-yl)pyrimidine-4-yl)amino)-4-methoxy-2-(4-(4-methylpiperazine-1-yl)-[1,4'-bipiperidine]-1'-yl)phenyl)acrylamide]",A (GI50 < 50 nM)
9,"C=CC(=O)Nc1cc(Nc2cc(N3OCC[C@@H]3c3cc(F)cc(F)c3)ncn2)c(OC)cc1N1CC[C@@H](CN(C)C)C1 [compound 625, N-(5-((6-((R)-3-(3,5-difluorophenyl)isoxazolidine-2-yl)pyrimidine-4-yl)amino)-2-((S)-3-((dimethylamino)methyl)pyrolidine-1-yl)-4-methoxyphenyl) acrylamide]",A (GI50 < 50 nM)
10,"C=CCN1CCN(C2CCN(c3cc(OC)c(Nc4cc(N5OCC[C@@H]5c5cccc(OC)c5)ncn4)cc3NC(=O)C=C)CC2)CC1 [Example 215, N-(2-(4-(4-allylpiperazine-1-yl)piperidine-1-yl)-4-methoxy-5-((6-((R)-3-(3-methoxyphenyl)isoxazolidine-2-yl)pyrimidine-4-yl)amino)phenyl) acrylamide]",C (500 nM ≤ GI50 < 5000 nM)
11,"C=CC(=O)Nc1cc(Nc2cc(N3OCC[C@@H]3c3ccc(F)cc3F)ncn2)c(OC)cc1N1CCC(N2CCC(N(C)C)CC2)CC1 [compound 478, N-(5-((6-((R)-3-(2,4-difluorophenyl)isoxazolidine-2-yl)pyrimidine-4-yl)amino)-2-(4-(dimethylamino)-[1,4'-bipiperidine]-1'-yl)-4-methoxyphenyl) acrylamide]",A (GI50 < 50 nM)
12,"C#Cc1cccc([C@H]2CCON2c2cc(Nc3cc(NC(=O)C=C)c(N4CCC(N5CCN(C6CCC6)CC5)CC4)cc3OC)ncn2)c1 [Example 191, N-(2-(4-(4-cyclobutylpiperazine-1-yl)piperidine-1-yl)-5-((6-((R)-3-(3-ethynylphenyl)isoxazolidine-2-yl)pyrimidine-4-yl)amino)-4-methoxyphenyl) acrylamide]",A (GI50 < 50 nM)
13,"C=CC(=O)Nc1cc(Nc2cc(N3OCC[C@@H]3Cc3cccc(F)c3C)ncn2)c(OC)cc1N(C)CCN(C)C [compound 1000, N-(2-((2-(dimethylamino)ethyl) (methyl)amino)-5-((6-((S)-3-(3-fluoro-2-methylbenzyl)isoxazolidine-2-yl)pyrimidine-4-yl)amino)-4-methoxyphenyl) acrylamide]",A (GI50 < 50 nM)
14,"C=CC(=O)Nc1cc(Nc2cc(N3OCC[C@@H]3c3cc(F)cc(F)c3)ncn2)c(OC)cc1N1CCC(N2C[C@H](C)N(C3CC3)C[C@H]2C)CC1 [Example 107, N-(2-(4-((2R,5S)-4-cyclopropyl-2,5-dimethylpiperazine-1-yl)piperidine-1-yl)-5-((6-((R)-3-(3,5-difluorophenyl)isoxazolidine-2-yl)pyrimidine-4-yl)amino)-4-methoxyphenyl) acrylamide]",A (GI50 < 50 nM)

# Results, then the compound that gave them:
row,Ba/F3 (NPH) Activity,Compound
1,B (50 nM ≤ GI50 < 500 nM),"C=CC(=O)Nc1cc(Nc2cc(N3OCC[C@@H]3c3ccc4ccccc4c3)ncn2)c(OC)cc1N1CCO[C@@H](C)C1 [compound 659, N-(4-methoxy-2-((S)-2-methylmorpholino)-5-((6-((R)-3-(naphthalene-2-yl)isoxazolidine-2-yl)pyrimidine-4-yl)amino)phenyl)acrylamide]"
2,A (GI50 < 50 nM),"C=CC(=O)Nc1cc(Nc2cc(N3OCC[C@@H]3c3ccc(F)cc3F)ncn2)c(OC)cc1N1CCN(CC)CC1 [compound 351, N-(5-((6-((R)-3-(2,4-difluorophenyl)isoxazolidine-2-yl)pyrimidine-4-yl)amino)-2-(4-ethylpiperazine-1-yl)-4-methoxyphenyl) acrylamide]"
3,B (50 nM ≤ GI50 < 500 nM),"C=CC(=O)Nc1cc(Nc2cc(N3OCC[C@@H]3c3cccc(Cl)c3Cl)ncn2)c(OC)cc1N1CCN(CCN(C)C)CC1 [compound 566, N-(5-((6-((R)-3-(2,3-dichlorophenyl)isoxazolidine-2-yl)pyrimidine-4-yl)amino)-2-(4-(2-(dimethylamino)ethyl)piperazine-1-yl)-4-methoxyphenyl) acrylamide]"
4,A (GI50 < 50 nM),"C=CC(=O)Nc1cc(Nc2cc(N3OCC[C@@H]3c3cccc(Cl)c3)ncn2)c(OC)cc1N1CCC(N2CCC(N(C)C)CC2)CC1 [compound 414, N-(5-((6-((R)-3-(3-chlorophenyl)isoxazolidine-2-yl)pyrimidine-4-yl)amino)-2-(4-(dimethylamino)-[1,4'-bipiperidine]-1'-yl)-4-methoxyphenyl) acrylamide]"
5,B (50 nM ≤ GI50 < 500 nM),"C=CC(=O)Nc1cc(Nc2cc(N3OCC[C@@H]3Cc3ccc(C(F)(F)F)cc3)ncn2)c(OC)cc1N1CCC(N2CCN(C3CC3)CC2)CC1 [compound 1050, N-(2-(4-(4-cyclopropylpiperazine-1-yl)piperidine-1-yl)-4-methoxy-5-((6-((S)-3-(4-(trifluoromethyl)benzyl)isoxazolidine-2-yl)pyrimidine-4-yl)amino)phenyl) acrylamide]"
6,A (GI50 < 50 nM),"C=CC(=O)Nc1cc(Nc2cc(N3OCC[C@@H]3c3cccc(Cl)c3C)ncn2)c(OC)cc1N1CCC(N2CCOCC2)CC1 [compound 486, N-(5-((6-((R)-3-(3-chloro-2-methylphenyl)isoxazolidine-2-yl)pyrimidine-4-yl)amino)-4-methoxy-2-(4-morpholinopiperidine-1-yl)phenyl)acrylamide]"
7,A (GI50 < 50 nM),"C=CC(=O)Nc1cc(Nc2cc(N3OCC[C@@H]3c3cccc4ccccc34)ncn2)c(OC)cc1N1CC[C@@H](N(C)C)C1 [compound 443, N-(2-((R)-3-(dimethylamino)pyrolidine-1-yl)-4-methoxy-5-((6-((R)-3-(naphthalene-1-yl)isoxazolidine-2-yl)pyrimidine-4-yl)amino)phenyl) acrylamide]"
8,A (GI50 < 50 nM),"C=CC(=O)Nc1cc(Nc2cc(N3OCC[C@@H]3c3cccc(Cl)c3Cl)ncn2)c(OC)cc1N1CCN(C2CC2)[C@@H](C)C1 [compound 568, N-(2-((S)-4-cyclopropyl-3-methylpiperazine-1-yl)-5-((6-((R)-3-(2,3-dichlorophenyl)isoxazolidine-2-yl)pyrimidine-4-yl)amino)-4-methoxyphenyl) acrylamide]"
9,A (GI50 < 50 nM),"C=CC(=O)Nc1cc(Nc2cc(N3OCC[C@@H]3Cc3ccccc3)ncn2)c(OC)cc1N1CCN(C(C)C)CC1 [compound 954, N-(5-((6-((S)-3-benzylisoxazolidine-2-yl)pyrimidine-4-yl)amino)-2-(4-isopropylpiperazine-1-yl)-4-methoxyphenyl) acrylamide]"
